Measurements: patent US10398689B2, “Benzopiperidine derivative, preparation method thereof and medical use thereof” (Jiangsu Hengrui Medicine Co., Ltd., priority 2015, dated 2019)

How the values were obtained:
[1] = system: MCF7 cells; assay: Inhibition of the proliferation of MCF7 cells (Cell Titer-Glo); type: cell-based; settings: Homo sapiens, MCF-7 cells, 72 hours, read-out: IC50 value of inhibition effect on the proliferation of MCF7 cells
Experimental: The object of this experiment was to determine the inhibition effect of the compounds on the proliferation activity of MCF7 cells, and the in vitro activity of the compounds was evaluated according to the IC50 values.
MCF-7 cells (Cell Bank of Chinese Academy of Sciences typical culture preservation Committee, TChu 74) were inoculated into the MEM medium (Hyclone, SH30024.01B) containing 10% FBS (Gibco, 10099-141), 1% sodium pyruvate (Sigma, S8636), and 1% nonessential amino acids (Sigma, M7145) in a 96-well plate with a density of 40,000 cells/well, and the cells were incubated under the conditions of 37° C., and 5% CO2. The compound was prepared as a 20 mM stock solution that was later diluted to 1000× final concentration with 100% DMSO, and then diluted with 20-fold medium containing 2% FBS. After incubation for 24 hours, the medium was removed and 90 μl of the medium containing 2% FBS and 10 μl of the drug were added to each well, 10 […] of DMSO was added to the control group, and the blank group contained only 100 μl medium containing 2% FBS. The plate was gently shaken and incubated in a incubator at 37° C., 5% CO2. After 72 hours later, 50 μl of mixed Cell Titer-Glo (Promega, G7571) was added to each well. The plate was shaken until the ingredients were mixed uniformly, and placed at room temperature for 10 minutes, then the chemiluminescence signal value was determined. The inhibition effect of the compound AZD9496 at 100 nM on the proliferation of MCF-7 cells was set to 100%, the maximum inhibition rate of other compounds=(chemiluminescence signal valuenegative control−chemiluminescence signal valuecompound 100 nm)/(chemiluminescence signal valuenegative control−chemiluminescence signal valueAZD9496 100 nm)×100%, and the negative control was a well with 0.5% DMSO.
The values of the chemiluminescence signals vs the logarithmic concentrations of the compounds were plotted using Graghpad Prism to obtain the IC50 values.

[2] = biological target: T1, ER (estrogen receptor) (Homo sapiens, UniProt P03372); assay: Inhibition of the binding of estrogen (E) to estrogen receptor (ER), MCF-7/ERE-luciferase reporter cells; type: cell-based; settings: MCF-7/ERE-luciferase cells, 0.1 nM estradiol, 24 hours, chemiluminescence; read-out: IC50 value of inhibition effect on the binding of E to ER
T1 construct: MCF-7/ERE-luciferase monoclonal cells were selected by transfection of MCF-7; host or cells: MCF-7/ERE-luciferase (only the ERE-luciferase reporter was transfected)
T1 sequence (P03372 1-595): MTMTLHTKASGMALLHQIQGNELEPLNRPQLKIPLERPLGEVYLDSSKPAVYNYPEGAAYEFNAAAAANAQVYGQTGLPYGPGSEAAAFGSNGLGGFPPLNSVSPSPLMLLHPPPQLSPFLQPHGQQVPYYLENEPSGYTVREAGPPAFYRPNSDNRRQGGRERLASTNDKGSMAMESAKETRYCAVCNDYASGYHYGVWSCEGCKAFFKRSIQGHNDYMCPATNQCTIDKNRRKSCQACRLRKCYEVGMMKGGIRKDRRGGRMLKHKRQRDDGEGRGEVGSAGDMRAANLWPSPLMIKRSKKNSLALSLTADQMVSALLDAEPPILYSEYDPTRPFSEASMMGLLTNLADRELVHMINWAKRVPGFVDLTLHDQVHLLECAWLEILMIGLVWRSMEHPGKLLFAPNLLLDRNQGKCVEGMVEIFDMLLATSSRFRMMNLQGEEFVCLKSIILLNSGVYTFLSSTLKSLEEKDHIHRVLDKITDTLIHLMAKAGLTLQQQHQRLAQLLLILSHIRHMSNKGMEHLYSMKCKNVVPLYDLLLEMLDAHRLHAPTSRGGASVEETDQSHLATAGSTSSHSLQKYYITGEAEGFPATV
Experimental: The compounds of the present invention have an inhibition effect on the binding of E (estrogen) to ER (estrogen receptor), thereby blocking the binding of a complex of E and ER complex to ERE (estrogen responsive element), and subsequently blocking the expression of downstream luciferase protein.
The inhibition effect of the compounds on the binding of E to ER in vitro was tested by the following method.
The object of this experiment was to determine the inhibition effect of the compounds on the binding of E to ER, and the in vitro activity of the compounds was evaluated according to the IC50 values.
ERE was cloned into the upstream of the luciferase gene, and MCF-7/ERE-luciferase monoclonal cells were selected by transfection of MCF-7 (Cell Bank of Chinese Academy of Sciences typical culture preservation Committee, TCHu74). MCF-7/ERE-luciferase cells were inoculated into the MEM medium (hyclone, SH30024.01B) containing 10% charcoal stripped FBS (Moregate, FBSF), 1% sodium pyruvate (Sigma, S8636), 1% nonessential amino acids (Sigma, M7145) and 500 μg/ml G418 in a 96-well plates with a density of 30,000 cells/well, and the cells were incubated under the conditions of 37° C., and 5% CO2. The drug was prepared as a 20 mM stock solution that was later diluted with 100% DMSO in 10 fold concentration gradient, and then diluted 20-fold with the medium DMEM. After incubation for 24 hours, the medium was removed, then 0.1 nM estradiol (Sigma, E2758) and 10 μl of the drug diluted with the medium were added to each well, and the control group was added with DMSO. The plate was gently shaken and incubated in a incubator at 37° C., 5% CO2. After 24 hours, the cell culture medium was discarded, Then, 50 μl of the prepared luciferase substrate (Promega, E6110) was added to each well, and the plate was placed in the dark at room temperature for 10-15 minutes, then the chemiluminescence signal value was determined.
The inhibition effect of the compounds of the present invention on the binding of E to ER was tested by the experiment described above. The values of the chemiluminescence signal vs the logarithmic concentrations of the compounds were plotted using Graphpad Prism, and the measured IC50 values are shown in Table 1.

| SMILES | IC50 [1] | IC50 [2] |
| --- | --- | --- |
| CCn1cc(-c2ccc3c(c2)CC(C)N(c2ccc(C4CC4)cc2)C3c2ccc(/C=C/C(=O)O)cc2)cn1 [Example 13, (E)-3-(4-((1R,3R/1S,3S)-2-(4-Cyclopropylphenyl)-6-(1-ethyl-1H-pyrazol-4-yl)-3-methyl-1,2,3,4-tetrahydroisoquinolin-1-yl)phenyl)acrylic acid] | 1.12 nM | 0.27 nM |
| CCc1ccc(N2C(C)Cc3cc(-c4cnn(CC)c4)ccc3C2c2ccc(/C=C/C(=O)O)cc2)cc1 [Example 17, (E)-3-(4-((1R,3R/1S,3S)-6-(1-Ethyl-1H-pyrazol-4-yl)-2-(4-ethylphenyl)-3-methyl-1,2,3,4-tetrahydroisoquinolin-1-yl)phenyl)acrylic acid] | 0.65 nM | 3.32 nM |
| CCCc1ccc(N2C(C)Cc3cc(-c4cnn(C)c4)ccc3C2c2ccc(/C=C/C(=O)O)cc2)cc1 [Example 20, (E)-3-(4-((1R,3R/1S,3S)-3-Methyl-6-(1-methyl-1H-pyrazol-4-yl)-2-(4-propylphenyl)-1,2,3,4-tetrahydroisoquinolin-1-yl)phenyl)acrylic acid] | 4.53 nM |  |
| CCn1cc(-c2ccc3c(c2)CC(C)N(c2ccc(C4CC4)cc2F)C3c2ccc(/C=C/C(=O)O)cc2)cn1 [Example 22, (E)-3-(4-((1R,3R/1S,3S)-2-(4-Cyclopropyl-2-fluorophenyl)-6-(1-ethyl-1H-pyrazol-4-yl)-3-methyl-1,2,3,4-tetrahydroisoquinolin-1-yl)phenyl)acrylic acid] | 0.57 nM | 1 nM |
| CCc1ccc(N2C(C)Cc3cc(-c4cnn(CC)c4)ccc3C2c2ccc(/C=C/C(=O)O)cc2)c(Cl)c1 [Example 23, (E)-3-(4-((1R,3R/1S,3S)-2-(2-Chloro-4-ethylphenyl)-6-(1-ethyl-1H-pyrazol-4-yl)-3-methyl-1,2,3,4-tetrahydroisoquinolin-1-yl)phenyl)acrylic acid] | 0.81 nM | 0.85 nM |
| CCn1cc(-c2ccc3c(c2)CC(C)N(c2ccc(C4CC4)cc2Cl)C3c2ccc(/C=C/C(=O)O)cc2)cn1 [Example 24, (E)-3-(4-((1R,3R/1S,3S)-2-(2-Chloro-4-cyclopropylphenyl)-6-(1-ethyl-1H-pyrazol-4-yl)-3-methyl-1,2,3,4-tetrahydroisoquinolin-1-yl)phenyl)acrylic acid] | 0.9 nM | 1.81 nM |
| CCn1cc(-c2ccc3c(c2)CC(C)N(c2ccc(C4CC4)cc2)C3c2ccc(/C=C/C(=O)O)cc2F)cn1 [Example 25, (E)-3-(4-((1S,3R/1R,3S)-2-(4-Cyclopropylphenyl)-6-(1-ethyl-1H-pyrazol-4-yl)-3-methyl-1,2,3,4-tetrahydroisoquinolin-1-yl)-3-fluorophenyl)acrylic acid] | 0.89 nM | 1.62 nM |
| CCn1cc(-c2ccc3c(c2)CC(C)N(c2ccc(C4CC4)c(F)c2)C3c2ccc(/C=C/C(=O)O)cc2)cn1 [Example 26, (E)-3-(4-((1R,3R/1S,3S)-2-(4-Cyclopropyl-3-fluorophenyl)-6-(1-ethyl-1H-pyrazol-4-yl)-3-methyl-1,2,3,4-tetrahydroisoquinolin-1-yl)phenyl)acrylic acid] |  | 6.76 nM |
| CCn1cc(-c2ccc3c(c2)C[C@@H](C)N(c2ccc(C4CC4)cc2C)[C@@H]3c2ccc(/C=C/C(=O)O)cc2)cn1 [Example 28, (E)-3-(4-((1R,3R)-2-(4-Cyclopropyl-2-methylphenyl)-6-(1-ethyl-1H-pyrazol-4-yl)-3-methyl-1,2,3,4-tetrahydroisoquinolin-1-yl)phenyl)acrylic acid] | 0.31 nM | 0.42 nM |
| CC1Cc2cc(-c3cnn(C(F)F)c3)ccc2C(c2ccc(/C=C/C(=O)O)cc2)N1c1ccc(C2CC2)cc1 (centres unmarked) [Example 29] | 2.36 nM | 1.26 nM |
| CCn1cc(-c2ccc3c(c2)CC(C)N(c2ccc(C4CC4)cc2)C3c2c(F)cc(/C=C/C(=O)O)cc2F)cn1 [Example 30, (E)-3-(4-((1S,3R/1R,3S)-2-(4-Cyclopropylphenyl)-6-(1-ethyl-1H-pyrazol-4-yl)-3-methyl-1,2,3,4-tetrahydroisoquinolin-1-yl)-3,5-difluorophenyl)acrylic acid] | 2.7 nM | 0.34 nM |
| CCn1cc(-c2ccc3c(c2)C[C@@H](C)N(c2ccc(C4CC4)cc2)[C@@H]3c2c(F)cc(/C=C/C(=O)O)cc2F)cn1 [Example 32] | 0.42 nM | 0.74 nM |
| Cc1ccc(N2[C@H](c3ccc(/C=C/C(=O)O)cc3)c3ccc(-c4cnn(C)c4)cc3C[C@H]2C)cc1 [Example 34] |  | 5.42 nM |
| Cc1ncc(-c2ccc3c(c2)CC(C)N(c2ccc(C4CC4)cc2)C3c2ccc(/C=C/C(=O)O)cc2)s1 [Example 35, (E)-3-(4-((1R,3R/1S,3S)-2-(4-Cyclopropylphenyl)-3-methyl-6-(2-methylthiazol-5-yl)-1,2,3,4-tetrahydroisoquinolin-1-yl)phenyl)acrylic acid] | 1.03 nM | 1 nM |
| CC1Cc2cc(-c3cnn(C)c3)ccc2C(c2ccc(/C=C/C(=O)O)cc2)N1c1ccc(C(C)(C)C)cc1 [Example 41, (E)-3-(4-((1R,3R/1S,3S)-2-(4-(tert-Butyl)phenyl)-3-methyl-6-(1-methyl-1H-pyrazol-4-yl)-1,2,3,4-tetrahydroisoquinolin-1-yl)phenyl)acrylic acid] |  | 8.08 nM |
| CC1Cc2cc(-c3cnn(C)c3)ccc2C(c2ccc(/C=C/C(=O)O)cc2)N1c1ccc(CC(F)(F)F)cc1 [Example 43, (E)-3-(4-((1R,3R/1S,3S)-3-Methyl-6-(1-methyl-1H-pyrazol-4-yl)-2-(4-(2,2,2-trifluoroethyl)phenyl)-1,2,3,4-tetrahydroisoquinolin-1-yl)phenyl)acrylic acid] |  | 31.7 nM |
| CCOc1ccc(N2C(C)Cc3cc(-c4cnn(C)c4)ccc3C2c2ccc(/C=C/C(=O)O)cc2)cc1 [Example 44, (E)-3-(4-((1R,3R/1S,3S)-2-(4-Ethoxyphenyl)-3-methyl-6-(1-methyl-1H-pyrazol-4-yl)-1,2,3,4-tetrahydroisoquinolin-1-yl)phenyl)acrylic acid] |  | 7.57 nM |
| CCc1ccc(N2C(C)Cc3cc(-c4cnn(C)c4)ccc3C2c2ccc(/C=C/C(=O)O)cc2)c(CC)c1 [Example 45, (E)-3-(4-((1R,3R/1S,3S)-2-(2,4-Diethylphenyl)-3-methyl-6-(1-methyl-1H-pyrazol-4-yl)-1,2,3,4-tetrahydroisoquinolin-1-yl)phenyl)acrylic acid] |  | 4.06 nM |
